Laboratory results published in patent US11897862B2 (Gilead Sciences, Inc., priority 2022, dated 2024).
Where two headings read alike, the source gives them in different places.

Assays:
Assay type in all cases: cell-based
[1] = test system: IL-2 production in Jurkat cells; assay: Jurkat IL-2 functional assay (ELISA of supernatants); details: Homo sapiens; for maximal fold induction: Jurkat, top of the curve fit; for EC50: overnight incubation
Description: (§1) Jurkat cell line (ATCC, Clone E6-1), highly expresses IKZF2 and lends it an appropriate system to screen degradation along with a functional readout. Jurkat cells were grown to 80% confluency in TC medium (RPMI containing glutamax, 10% FBS, 1% NEAA, and 1% Pen/Strep Glutamin in tissue culture flasks.
(§2) The cells were spun down at 400 g for 5 mins and counted. 100 K cells per well were added to a 96-well plate. The compounds were introduced starting at 10 μM and dilutions were made 1:10 for each compound. 100 μL of compound was added to each well for a 12-point titration. The cells were incubated at 37° C. with 5% CO2 overnight.
The following day, supernatants were collected for a functional readout using ELISA. The supernatants were diluted 1:2 and added to appropriate Human IL-2 plates for IL-2 functional readout.
The top of the curve fit for each compound is reported as the IL-2 ‘fold increase over DMSO control.’

IKZF2 [2] = molecular target: T1, IKZF2 (Homo sapiens, UniProt Q96SW2+Q9UKS7); assay: HEK293 HiBiT in vitro degradation of IKZF2; parameters: expressed in transfected cells; details: for DC50 / IKZF2 Dmax: HEK293 HiBiT; for DC50: 18-24 hr incubation, normalized to DMSO control, read-out: IKZF2 EC50; for IKZF2 Dmax / Dmax: maximum degradation at the highest concentration tested; for Dmax: HEK293, HEK293 HiBiT
Procedure, shortened: (§3)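 Read-out: Nano-Glo lytic HiBiT luminescence after 18-24 h compound exposure at 37 °C, fitted to EC50 and Dmax. Cells were Flp-In T-REx HEK293 expressing linker-HiBiT fused to the C-terminus of each target, doxycycline-induced ([…] final) overnight beforehand.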

IKZF2 [3] = molecular target: T1, IKZF2; assay: Jurkat IKZF2 degradation (flow cytometry); parameters: endogenous in cells; details: Jurkat cells, overnight incubation; for DC50: flow cytometry, normalized to DMSO control, read-out: IKZF2 Degradation EC50; for Dmax: maximum degradation at the highest concentration tested
Description: as §1, §2
Target sequence in this assay (Q9UKS7 whole entry, the tested form may be a part): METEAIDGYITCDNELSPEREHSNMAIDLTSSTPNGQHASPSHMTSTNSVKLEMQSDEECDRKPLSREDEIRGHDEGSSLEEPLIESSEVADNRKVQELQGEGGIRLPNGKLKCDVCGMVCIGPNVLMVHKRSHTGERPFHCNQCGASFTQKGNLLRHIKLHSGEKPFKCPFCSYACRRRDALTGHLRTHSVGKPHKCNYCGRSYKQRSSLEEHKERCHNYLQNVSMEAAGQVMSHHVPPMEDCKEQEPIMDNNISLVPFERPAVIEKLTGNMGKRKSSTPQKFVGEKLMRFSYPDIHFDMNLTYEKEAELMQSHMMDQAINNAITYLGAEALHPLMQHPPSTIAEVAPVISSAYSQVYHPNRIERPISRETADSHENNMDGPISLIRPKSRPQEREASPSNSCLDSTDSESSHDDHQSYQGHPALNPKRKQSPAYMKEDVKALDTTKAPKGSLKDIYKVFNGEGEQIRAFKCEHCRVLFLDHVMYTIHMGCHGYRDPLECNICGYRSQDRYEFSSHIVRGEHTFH
Target sequence in this assay (Q96SW2 whole entry, the tested form may be a part): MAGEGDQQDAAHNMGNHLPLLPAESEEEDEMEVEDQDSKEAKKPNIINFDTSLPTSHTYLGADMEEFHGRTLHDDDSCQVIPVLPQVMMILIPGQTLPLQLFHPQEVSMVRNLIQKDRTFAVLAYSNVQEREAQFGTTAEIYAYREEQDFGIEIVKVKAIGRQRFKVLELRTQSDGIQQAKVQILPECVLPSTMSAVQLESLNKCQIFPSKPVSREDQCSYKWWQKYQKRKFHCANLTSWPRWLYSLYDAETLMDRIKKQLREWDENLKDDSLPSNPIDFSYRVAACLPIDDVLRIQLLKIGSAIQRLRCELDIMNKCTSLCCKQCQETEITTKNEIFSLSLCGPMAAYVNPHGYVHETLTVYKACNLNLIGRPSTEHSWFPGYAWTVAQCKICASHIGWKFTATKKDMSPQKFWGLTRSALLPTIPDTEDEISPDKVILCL
Target sequence in this assay (Q16531 whole entry partner, the tested form may be a part): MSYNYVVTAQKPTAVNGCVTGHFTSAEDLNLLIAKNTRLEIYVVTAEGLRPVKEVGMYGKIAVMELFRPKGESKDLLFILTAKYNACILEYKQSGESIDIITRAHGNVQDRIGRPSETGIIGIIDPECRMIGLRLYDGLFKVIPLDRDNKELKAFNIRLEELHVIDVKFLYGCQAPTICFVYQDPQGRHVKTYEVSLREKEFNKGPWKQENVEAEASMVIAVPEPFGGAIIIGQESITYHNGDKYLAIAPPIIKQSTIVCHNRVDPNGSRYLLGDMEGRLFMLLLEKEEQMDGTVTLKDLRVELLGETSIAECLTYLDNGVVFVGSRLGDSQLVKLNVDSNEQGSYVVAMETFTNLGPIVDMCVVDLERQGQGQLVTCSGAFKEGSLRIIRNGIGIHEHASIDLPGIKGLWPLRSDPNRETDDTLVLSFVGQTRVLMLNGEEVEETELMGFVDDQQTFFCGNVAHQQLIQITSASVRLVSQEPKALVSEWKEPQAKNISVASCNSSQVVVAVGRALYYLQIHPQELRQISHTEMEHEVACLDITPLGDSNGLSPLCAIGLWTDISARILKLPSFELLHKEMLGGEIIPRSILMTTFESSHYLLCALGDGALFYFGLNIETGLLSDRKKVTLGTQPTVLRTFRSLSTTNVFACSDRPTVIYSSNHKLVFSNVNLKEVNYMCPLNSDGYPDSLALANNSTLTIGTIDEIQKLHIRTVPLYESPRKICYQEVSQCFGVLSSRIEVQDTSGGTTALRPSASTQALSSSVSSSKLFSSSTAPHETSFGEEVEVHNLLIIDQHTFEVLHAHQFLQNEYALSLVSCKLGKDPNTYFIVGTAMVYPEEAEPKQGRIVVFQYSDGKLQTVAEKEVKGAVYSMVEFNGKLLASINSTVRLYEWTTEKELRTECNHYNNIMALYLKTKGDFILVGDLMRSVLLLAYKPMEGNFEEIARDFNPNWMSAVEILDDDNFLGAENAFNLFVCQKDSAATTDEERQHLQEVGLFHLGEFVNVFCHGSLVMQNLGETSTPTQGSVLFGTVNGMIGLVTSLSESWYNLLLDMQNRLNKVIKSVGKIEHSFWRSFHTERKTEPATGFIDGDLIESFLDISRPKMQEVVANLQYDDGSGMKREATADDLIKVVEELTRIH
Cells were stained with appropriate surface and intracellular antibodies and acquired by flow cytometry and analysed for degradation. […]

IKZF2 [4] = molecular target: T1, IKZF2; assay: HEK293 IKZF2 degradation kinetics (HiBiT, timepoints 1-24 h); parameters: expressed in transfected cells; details: for kinact: HEK293, IKZF2, timepoints 1, 2, 3, 4.5 and 24 hour, read-out: Maximum degradation rate Kinact (converted)
Description: The assay technology and principles for evaluating IKZF2 degradation kinetics in HEK293 cells was identical to the HEK293 degradation assay as described above. Additional details are briefly described below.
On Day 1, Cells were grown and induced the same as described above. On Days 2 and 3, compounds for testing were dispensed via ECHO and cells were lifted and plated into compound-spotted assay plates as above. Plates were returned to the 37° C. incubator until addition of Nano-Glo lytic reagent at 1, 2, 3, 4.5, and 24 hour timepoints. At these timepoints, plates were read on Envision reader as above.
All raw data was normalized to DMSO control (final concentration: 0.5%) wells as POC and plotted out as a function of time to generate the degradation rate constant (K) value. The maximum degradation rate (Kinact) was determined by plotting the K value as a function of concentration for each compound tested. Kinact values are shown in Table 25 and the degradation rate plots as well as timecourse of degradation are shown for select compounds in FIG. 1A, FIG. 1B, FIG. 2A and FIG. 2B.

IKZF2 [5] = molecular target: T1, IKZF2; assay: Human whole blood IKZF2 degradation (flow cytometry, CD4/CD25/Foxp3+ Treg cells); parameters: endogenous in cells; details: for DC50: read-out: IKZF2 EC50
Procedure, shortened: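 Fresh healthy-donor human whole blood stimulated with CD3/CD28 activator and serially diluted compound for 24 hrs at 37° C. IKZF2 MFI in CD4/CD25/Foxp3+ Tregs (IKZF1 MFI in CD4+ T cells) measured by flow cytometry after RBC lysis, fixation, permeabilization. EC50 and Dmax versus DMSO wells.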
Target sequence in this assay (Q9UKS7 whole entry, the tested form may be a part): as the sequence (Q9UKS7 whole entry, the tested form may be a part) above
Target sequence in this assay (Q96SW2 whole entry, the tested form may be a part): as the sequence (Q96SW2 whole entry, the tested form may be a part) above
Target sequence in this assay (Q16531 whole entry partner, the tested form may be a part): as the sequence (Q16531 whole entry partner, the tested form may be a part) above

IKZF1 = molecular target: T2, IKZF1 (Homo sapiens, UniProt Q13422+Q96SW2); assay: HEK293 HiBiT in vitro degradation of IKZF1; details: for Dmax: HEK293, HEK293 HiBiT, maximum degradation at the highest concentration tested; for DC50: HEK293 HiBiT, 18-24 hr incubation, normalized to DMSO control, read-out: IKZF1 EC50
T2 construct: expressed in transfected cells
Procedure, shortened: as §3

SALL4 = molecular target: T3, SALL4 (Homo sapiens, UniProt Q96SW2+Q9UJQ4); assay: HEK293 HiBiT in vitro degradation of SALL4; details: for DC50: 18-24 hr incubation, normalized to DMSO control, read-out: SALL4 EC50
T3 construct: expressed in transfected cells
Description: In vitro degradation of IKZF1, IKZF2, and SALL4 was measured using HiBiT protein tagging and detection technology (Promega).
HiBit technology was used to develop the quantitative assays to measure the cellular IKZFs level by tagging an 11 amino acid HiBit peptides […] to the protein of interest. Reporter plasmids were generated by fusing a linker sequence ([…]) followed by the HiBit tag at the C-terminus of IKZF1, IKZF2, and SALL4. The fusion fragments were subsequently cloned into pcDNA5 pcDNA™5/FRT/TO plasmids (Thermo Fisher, cat #V652020) downstream of the tetracycline operator. The resulting plasmids were co-transfected with pOG44 Flp-Recombinase Expression Vector (Thermo Fisher, cat #V600520) into Flp-In™ T-REx HEK293 line (Thermo Fisher, cat #R78077) and a stable cell pool was selected by adding 100 µg/ml of Hygromycin (Thermo Fisher, cat #10687010). The reporter cell enabled Tet-On inducible reporter expression from a single copy of the integrated gene.
On Day 1, Cells were grown to ˜80% confluency in tissue culture medium (DMEM Glutamax (Gibco10569), 10% Tet free FBS (Takara 631106), and PenStrep Glutamin (Gibco 10378)) in tissue culture flasks. Doxycycline was then added to a final concentration of […] to induce reporter expression at 37° C. overnight.
On Day 2, 125 nL of serially-diluted solution of testing compounds were dispensed into 384-well white solid assay plates via ECHO acoustic liquid handler. Cells were lifted by 0.25% Trypsin (Gibco 25200) then pelleted by centrifugation (Beckman Avanti J-E) at 500×g for 5 min. Cell pellets were resuspended in TC medium at the concentration of 3e5/mL and 25 μL of cell suspension were added into each well of compound-spotted plates. The plates were returned to a 37° C. incubator overnight (18-24 hr).
On Day 3, assay plates were removed from the tissue culture incubator and 25 μL of Nano-Glo lytic detection system (Promega, cat #N3030) was added to each well. Plates were incubated at r.t. for 3 min with shaking, and luminescence was read using an Envision reader (Perkin Elmer).
To assess the IKZF1, IKZF2, and SALL4 degrader potential of exemplified compounds of this disclosure and certain Reference Compounds EC50 and Dmax values were determined for the compounds of Examples 1 to 383 and Reference Compounds A-1, B-1, B-2, B-3, B-4, and C-1 in the HiBiT assays. Asterisks (*) indicate examples for which the data shown represents an average of n≥3.

[6] = ELISA of supernatants, read-out: IL-2 Production Fold increase over DMSO control
[7] = read-out: increase in IL-2 production relative to DMSO control
[8] = 24 hrs incubation, IKZF2 MFI in CD4/CD25/Foxp3+ Treg cells, flow cytometry

T3 sequence (Q9UJQ4 whole entry): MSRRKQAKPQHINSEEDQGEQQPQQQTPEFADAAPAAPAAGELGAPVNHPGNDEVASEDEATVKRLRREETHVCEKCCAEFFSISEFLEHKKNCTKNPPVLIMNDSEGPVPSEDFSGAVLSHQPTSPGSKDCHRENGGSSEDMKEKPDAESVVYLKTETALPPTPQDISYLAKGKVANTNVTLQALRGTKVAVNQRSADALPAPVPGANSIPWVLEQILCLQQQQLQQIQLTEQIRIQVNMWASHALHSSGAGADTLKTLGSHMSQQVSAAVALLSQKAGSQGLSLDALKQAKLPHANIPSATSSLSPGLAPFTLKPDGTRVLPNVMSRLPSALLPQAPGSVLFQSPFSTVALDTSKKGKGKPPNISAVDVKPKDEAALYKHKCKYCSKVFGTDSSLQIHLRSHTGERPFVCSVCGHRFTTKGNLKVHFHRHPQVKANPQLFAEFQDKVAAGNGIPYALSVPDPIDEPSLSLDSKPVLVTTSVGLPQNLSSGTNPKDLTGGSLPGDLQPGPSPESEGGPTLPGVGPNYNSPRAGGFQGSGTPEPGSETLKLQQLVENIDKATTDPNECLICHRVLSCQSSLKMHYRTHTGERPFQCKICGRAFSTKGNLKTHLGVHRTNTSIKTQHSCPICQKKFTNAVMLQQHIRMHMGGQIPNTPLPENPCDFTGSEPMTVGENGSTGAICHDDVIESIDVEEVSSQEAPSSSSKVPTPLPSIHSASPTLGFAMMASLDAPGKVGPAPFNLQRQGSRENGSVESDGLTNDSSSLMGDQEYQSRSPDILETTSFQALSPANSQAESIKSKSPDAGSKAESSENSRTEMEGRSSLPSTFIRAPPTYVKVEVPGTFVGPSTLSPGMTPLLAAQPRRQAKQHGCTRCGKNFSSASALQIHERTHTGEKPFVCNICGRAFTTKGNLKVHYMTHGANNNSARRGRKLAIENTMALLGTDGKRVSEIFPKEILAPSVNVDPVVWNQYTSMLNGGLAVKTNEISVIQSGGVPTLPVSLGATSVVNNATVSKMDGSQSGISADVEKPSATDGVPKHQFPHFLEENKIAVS
T3 sequence (Q96SW2 whole entry): as the sequence (Q96SW2 whole entry, the tested form may be a part) above
T3 sequence (Q16531 whole entry partner): as the sequence (Q16531 whole entry partner, the tested form may be a part) above

EC50 ([1]; ELISA of supernatants) [nM] | DC50 (IKZF2 [2]) [nM] | IKZF2 Dmax (IKZF2 [2]) [%] | DC50 (IKZF2 [3]) [nM] | Dmax (IKZF2 [3]) [%] | kinact (IKZF2 [4]) [s⁻¹] | Dmax (IKZF2 [5]; [8]) [%] | DC50 (IKZF2 [5]; [8]) [nM] | Dmax (IKZF1) [%] | DC50 (IKZF1) [nM] | DC50 (SALL4) [nM] | Dmax (IKZF2 [2]) [%] | speed of IKZF2 degradation compared with Reference Compounds A-1, B-3, B-4, C-1 (IKZF2 [4]; HEK293) | IKZF2 degradation potency compared with Reference Compound B-4 (IKZF2 [5]; 24 hrs) | IKZF2 Dmax (IKZF2 [5]; [8]) [%] | Dmax (SALL4; maximum degradation at the highest concentration tested) [%] | SMILES | maximal fold induction [1, 6] | maximal fold induction [1, 7]
1.9 | 4 | 98 | 1.4 | 90 | 9.44e-05 | 96 | 5 | 26 | 92 | > 10000 | – | – | – | – | – | O=C1CCC(N2Cc3c(ccc(C[C@H]4OCCC[C@@H]4NC4CCC(C(F)F)CC4)c3F)C2=O)C(=O)N1 (single isomer, unassigned) [Example 283] | 2.1 | ≥ 1.9
0.6 | 1 | – | 0.6 | 96 | 0.000189 | 92 | 2 | 47 | 66 | > 10000 | 95 | – | – | – | – | CC(N[C@H]1CCCC[C@@H]1Cc1ccc2c(c1F)CN(C1CCC(=O)NC1=O)C2=O)C1CCOCC1 (single isomer, unassigned) [Example 287] | 2.5 | ≥ 1.9
3.4 | 1 | – | 0.4 | 96 | 0.000175 | 94 | 2 | 62 | 22 | > 10000 | 98 | – | – | – | – | O=C1CC[C@H](N2Cc3cc(C[C@H]4CCCC[C@@H]4NC4CCC(F)(F)CC4)ccc3C2=O)C(=O)N1 (single isomer, unassigned) [Example 328] | 2.7 | ≥ 1.9
3.5 | 1 | – | 2 | 95 | 0.000158 | 96 | 3 | 29 | 33 | > 10000 | 94 | faster degradation of IKZF2 | more potent | – | – | O=C1CCC(N2Cc3cc(C[C@H]4CCCC[C@@H]4NC4CCC(F)(F)CC4)ccc3C2=O)C(=O)N1 (stereo partly drawn) [Example 46, 3-(5-(((1R,2S)-2-((4,4-difluorocyclohexyl)amino)cyclohexyl)methyl)-1-oxoisoindolin-2-yl)piperidine-2,6-dione] | 2.7 | ≥ 1.9
0.2 | 1 | – | 0.05 | 97 | – | 93 | 1 | 68 | 28 | – | 97 | – | – | – | – | O=C1CCC(N2Cc3c(ccc(C[C@H]4CCCC[C@@H]4NC4CCC(F)(F)CC4)c3F)C2=O)C(=O)N1 (stereo partly drawn) [Example 84, 3-(5-(((1R,2S)-2-((4,4-difluorocyclohexyl)amino)cyclohexyl)methyl)-4-fluoro-1-oxoisoindolin-2-yl)piperidine-2,6-dione] | 2.6 | ≥ 1.9
2.3 | 10 | – | 2 | 88 | – | 90 | 7 | – | > 10000 | – | 96 | – | – | – | – | O=C1CCC(N2Cc3c(ccc(C[C@H]4OCCC[C@@H]4NC4CCC(F)(F)CC4)c3F)C2=O)C(=O)N1 (stereo partly drawn) [Example 94, 3-(5-(((2R,3S)-3-((4,4-difluorocyclohexyl)amino)tetrahydro-2H-pyran-2-yl)methyl)-4-fluoro-1-oxoisoindolin-2-yl)piperidine-2,6-dione] | 2.1 | ≥ 1.9
8 | 2 | 95 | 0.8 | 93 | 0.000131 | – | 4 | 34 | 626 | – | – | – | – | 97 | – | CC(N[C@H]1CCCC[C@@H]1Cc1ccc2c(c1)CN(C1CCC(=O)NC1=O)C2=O)C1CCC1 (some centres unmarked) [Example 218] | 2.2 | ≥ 1.9
0.03 | 5 | – | 0.1 | 90 | 0.000106 | – | – | – | > 1000 | > 10000 | 97 | – | – | – | – | O=C1CC[C@H](N2Cc3c(ccc(C[C@H]4OCCC[C@@H]4N[C@H]4CC[C@H](F)CC4)c3F)C2=O)C(=O)N1 [Example 369] | 2 | ≥ 1.9
10 | – | – | – | 61 | 3.89e-05 | 82 | – | – | – | – | 82 | – | – | – | 63 | O=C1CCC(N2Cc3cc(C4CCC(Cc5ccccc5)CC4)ccc3C2=O)C(=O)N1 (centres unmarked) [Example A-1] | 1.6 | –
7.8 | – | – | – | 94 | 0.000144 | 97 | – | – | – | – | 98 | – | – | – | – | O=C1CCC(N2Cc3cc(O[C@H]4CCCC[C@@H]4NC4CCC(F)(F)CC4)ccc3C2=O)C(=O)N1 (some centres unmarked) [Example B-4] | 1.8 | –
